Reference: patent US6818215B2, “Antibodies to senescent cell-derived inhibiters of DNA synthesis” (priority 1991, dated 2004)

Tests used:
[1] = system: E2F/p107/cdk/cyclin complexes; assay: Effect of recombinant SDI-1 on DNA-protein complexes at an E2F binding site in nuclear extracts; format: biochemical; conditions: extracts from cells in late G1
Description: E2F binding sites are occupied by protein complexes, whose composition—at least by in vitro analyses—depend on the cellular growth state and stage of the cell cycle (Chellappan, S. P. et al., Cell 65:1053-1061 (1991); Nevins, J. R., Science 258:424-429 (1992); Farnham, P. J. et al., Biochim. Biophys. Acta 1155:125-131 (1993)). To determine which if any of these complexes might be a target for SDI-1, the effect of recombinant SDI-1 protein on DNA-protein complexes that associate with an E2F binding site in vitro was determined
E2F-1 is induced a few hours prior to S phase (Shan, B. et al., Molec. Cell. Biol. 12:5620-5631 (1992); Slansky, J. E. et al., Molec. Cell. Biol. 13:1610-1618 (1993); Dimri, G. P et al., J. Biol. Chem. 269:16180-16186 (1994)) at about which time nuclear extracts from cells in mid to late G1 contain increased levels of free E2F, E2F in association with pRb, and E2F in association with p107, cdk2 and cyclin E (mid-late G1-early S). Of the complexes present in extracts from cells in late G1, only the E2F/p107/cdk/cyclin complexes were disrupted by recombinant SDI-1.

C33A (HTB 31) = assay: DNA synthesis inhibition by SDI-1 in pRb-deficient cells; format: cell-based, human
Method: Because SDI-1 inhibits the protein kinases that phosphorylate pRb, and unphosphorylated pRb is believed to negatively regulate E2F activity (Nevins, J. R., Science 258:424-429 (1992)), pRb is presumed to be a central mediator of SDI-1's effects. Since A31 cells express a normal Rb gene, the ability of SDI-1 to inhibit E2F activity, and possibly growth, in tumor cells that lack a functional pRb was tested. […] C33A cells were obtained from the American Type Culture Collection (Rockville, Md.).
By contrast, C33A and A31 cells were equally sensitive to SDI-1 inhibition of E2F activity. Thus, CMV-SDI-1 reduced DHFR-, cdc2- and SV/E2F-driven CAT activity to approximately equal extents in C33A and A31 cells. As expected CMV-SDI-1 had no effect on SV/E2Fm-driven CAT activity in either cell line.

c-fos promoter = assay: CAT reporter transcription assay, fos-CAT; format: cell-based; conditions: SDI-1 2.0 μg
Method: The effect of the human SDI-1 on transcription driven by two E2F-responsive promoters was determined. Proliferating A31 cells were transfected with an SDI-1 expression vector in which the SDI-1 cDNA was driven by the strong constitutive cytomegalovirus early promoter (CMV) together with a reporter vector in which the chloramphenicol acetyltransferase (CAT) gene was driven by either the hamster dihydrofolate reductase (DHFR) promoter or the human cdc2 promoter (cdc2-CAT). A31 cells are Balb/c murine 3T3 fibroblasts whose origin and growth properties have been described (Lu, K. et al., Molec. Cell. Biol. 9:3411-3417 (1989); Dimri, G. P et al., J. Biol. Chem. 269:16180-16186 (1994), herein incorporated by reference). Cells were transfected with 2 μg of expression vectors, reporters vectors (for transactivation) and the CMV-β-gal identification/normalization vector using Lipofectamine (Gibco-BRL), as described by Dimri, G. P et al. (J. Biol. Chem. 269:16180-16186 (1994), herein incorporated by reference), The vector backbone was added to the mixture as needed to equalize the amount of transfected DNA. Seventy-two hours later, the cells were lysed and assayed for chloramphenicol acetyl transferase (CAT) and β-galactosidase activity. Both DHFR and cdc2 were expressed by proliferating cells, largely due to E2F-mediated transcription that is dependent on E2F binding sites in the 5′ regulatory regions of these genes (Slansky, J. E. et al., Molec. Cell. Biol. 13:1610-1618 (1993); Dalton, S., EMBO J. 11:1797-1804 (1992)).
In sharp contrast to the response of the DHFR and cdc2 promoters, CMV-SDI-1 had little or no effect on reporter activity driven by either the SV 40 early promoter (SV-CAT or the c-fos promoter (fos-CAT) (Table 16). Neither the SV40 early genes nor c-fos has been reported to be E2F-responsive.

WI38 immortal cell line = assay: Transient transfection of SDI-1, inhibition of DNA synthesis; format: cell-based, human
Description: (§1) This provides further evidence that SDI-1 behaves like the inhibitor previously detected in senescent cells.

[2] = system: neonatal foreskin cell line (CSC303); assay: as above; format: cell-based, human
Description: as §1

HeLa cells = assay: as above; format: cell-based, human
Description: as §1

What does the source list for “SDI-1: senescent cell derived inhibitor of DNA synthesis, 164 amino acid protein, SEQ ID NO:2”?
effect on E2F/p107/cdk/cyclin complexes [1]: disrupted; inhibition (antiproliferative effect) (C33A (HTB 31)): 40-50%; % Activity (c-fos promoter): 96%; % Inhibition (c-fos promoter): 4%; Normalized CAT Activity (c-fos promoter): 16273 counts per minute; inhibition (DNA synthesis) (WI38 immortal cell line): 40-50%; inhibition (DNA synthesis) [2]: 40-50%; inhibition (DNA synthesis) (HeLa cells): < 20%
